According to patent publication US12116343B2, “Inhibitors of APOL1 and methods of using same” (Vertex Pharmaceuticals Incorporated, priority 2020, dated 2024):

Molecular target: T1, APOL1 G1 Protein (Homo sapiens, UniProt O14791, I384M/S342G)
T1 sequence (O14791 28-398 S342G/I384M): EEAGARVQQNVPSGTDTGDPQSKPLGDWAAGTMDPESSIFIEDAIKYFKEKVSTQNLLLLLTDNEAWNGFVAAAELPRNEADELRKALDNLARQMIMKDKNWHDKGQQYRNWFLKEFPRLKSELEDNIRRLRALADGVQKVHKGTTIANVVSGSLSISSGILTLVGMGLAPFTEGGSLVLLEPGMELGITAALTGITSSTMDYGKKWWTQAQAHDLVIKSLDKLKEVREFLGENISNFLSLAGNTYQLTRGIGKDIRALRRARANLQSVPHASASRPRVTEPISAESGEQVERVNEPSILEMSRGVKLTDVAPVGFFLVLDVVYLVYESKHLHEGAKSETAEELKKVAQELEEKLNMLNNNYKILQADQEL
Test: Trypanosoma brucei brucei lysis assay using APOL1 recombinant protein (AlamarBlue viability)
Assay type: cell-based
Details: Trypanosoma brucei brucei lysis, recombinant APOL1, AlamarBlue; read-out: Trypanosoma Assay (IC50)
In short: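 Bloodstream-form T. b. brucei Lister 427 VSG 221, 120,000 parasites/well in phenol red-free, FBS-free medium, lysed by recombinant APOL1 G1 with compound (10-point dose response, 0.1% DMSO final). Viability read by AlamarBlue fluorescence against a parasite standard curve.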

Structure (SMILES)	IC50
COC1CC1NC(=O)[C@H]1C[C@H](c2c(-c3ccc(F)cc3)[nH]c3c(F)cc(F)cc32)C1 (stereo partly shown) [Compound 18]	> 1000 nM
O=C([C@H]1C[C@H](c2c(-c3ccc(F)cc3)[nH]c3c(F)cc(F)cc32)C1)N1CCOC[C@H]1CO [Compound 217]	250 to 1000 nM
CN(C(=O)[C@H]1C[C@H](c2c(-c3ccc(F)cc3)[nH]c3c(F)cc(F)cc32)C1)C1COCC1O (stereo partly shown) [Compound 205]	> 1000 nM
CC[C@@H](CO)NC(=O)[C@H]1C[C@H](c2c(-c3ccc(F)cc3)[nH]c3c(F)cc(F)cc32)C1 [Compound 204]	< 250 nM
O=C(NC[C@@H](O)C(F)(F)F)[C@H]1C[C@H](c2c(-c3ccc(F)cc3)[nH]c3c(F)cc(F)cc32)C1 [Compound 177]	250 to 1000 nM
C[C@@H](NC(=O)[C@H]1C[C@H](c2c(-c3ccc(F)cc3)[nH]c3c(F)cc(F)cc32)C1)C(N)=O [Compound 28]	> 1000 nM
CS(=O)(=O)NC(=O)[C@H]1C[C@H](c2c(-c3ccc(F)cc3)[nH]c3c(F)cc(F)cc32)C1 [Compound 213]	> 1000 nM
CC(C)(CO)NC(=O)[C@H]1C[C@H](c2c(-c3ccc(F)cc3)[nH]c3c(F)cc(F)cc32)C1 [Compound 31]	250 to 1000 nM
CC(C#N)(CO)NC(=O)[C@H]1C[C@H](c2c(-c3ccc(F)cc3)[nH]c3c(F)cc(F)cc32)C1 (stereo partly shown) [Compound 191]	< 250 nM
CS(=O)(=O)CCNC(=O)[C@H]1C[C@H](c2c(-c3ccc(F)cc3)[nH]c3c(F)cc(F)cc32)C1 [Compound 40]	> 1000 nM
O=C(N[C@H]1CNC[C@@H]1O)[C@H]1C[C@H](c2c(-c3ccc(F)cc3)[nH]c3c(F)cc(F)cc32)C1 [Compound 212]	250 to 1000 nM
O=C(NC[C@H](O)C(F)(F)F)[C@H]1C[C@H](c2c(-c3ccc(F)cc3)[nH]c3c(F)cc(F)cc32)C1 [Compound 176]	< 250 nM
CC1CC(NC(=O)[C@H]2C[C@H](c3c(-c4ccc(F)cc4)[nH]c4c(F)cc(F)cc43)C2)C(=O)O1 (stereo partly shown) [Compound 207]	> 1000 nM
O=C([C@H]1C[C@H](c2c(-c3ccc(F)cc3)[nH]c3c(F)cc(F)cc32)C1)N1C[C@@H](O)[C@H](O)C1 [Compound 227]	250 to 1000 nM
O=C(NC1CCOC1)[C@H]1C[C@H](c2c(-c3ccc(F)cc3)[nH]c3c(F)cc(F)cc32)C1 (stereo partly shown) [Compound 15]	250 to 1000 nM
O=C1OCC[C@@H]1NC(=O)[C@H]1C[C@H](c2c(-c3ccc(F)cc3)[nH]c3c(F)cc(F)cc32)C1 [Compound 188]	250 to 1000 nM
O=C([C@H]1C[C@H](c2c(-c3ccc(F)cc3)[nH]c3c(F)cc(F)cc32)C1)N1CCOC[C@@H]1CO [Compound 219]	< 250 nM
COC[C@@H]1CCN1C(=O)[C@H]1C[C@H](c2c(-c3ccc(F)cc3)[nH]c3c(F)cc(F)cc32)C1 [Compound 220]	250 to 1000 nM
CC(CO)NC(=O)[C@H]1C[C@H](c2c(-c3ccc(F)cc3)[nH]c3c(F)cc(F)cc32)C1 (mixture of isomers) [Compound 13]	< 250 nM
